In assay [1] the test system is dengue virus type 2 in Huh7 hepatoblastoma cells. Nature of the assay: Dengue Virus-2 Huh-7 EC50 (Example W). The note with it: MOI of 0.07, CPE, neutral red dye, read-out: Dengue Virus-2 Huh-7 EC50 (nM) (per Ex. W). In kind it is cell-based. The method in brief: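 Huh7 monolayers were infected with dengue virus type 2 (about 2000 CCID50/well, MOI 0.07) in the presence of eight 3-fold compound dilutions, top 50 μg/mL, and incubated until >80% CPE. Viability by neutral red uptake at 540 nm, normalized to virus controls; EC50 and CC50 by linear regression.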

For assay [2], the system named is CAN97-83-GFP1 (A2a) hMPV in H1-HeLa cells. Nature of the assay: hMPV H1-Hela EC50, anti-nucleoprotein ELISA (Example X). The note with it: human metapneumovirus, 96 h, read-out: hMPV H1-Hela EC50 (nM) (per Ex. X). The format is cell-based. As for the experimental part: The human metapneumoavirus (hMPV) anti-viral assay is an anti-nucleoprotein ELISA performed in infected H1-HeLa cells. H1-HeLa cells were maintained in Dulbecco's Modified Eagle's Medium with high glucose (Gibco, Cat #: 11995073) supplemented with 10% FBS (HyClone, Cat #: SH303396.03), 100 units/mL penicillin and 100 μg/mL streptomycin (Gibco, Cat #: 15140122). One day before infection, H1-HeLa cells were seeded into 96-well plates (Corning, Cat. #: 3903) at 0.1 mL/well at 1.5×10^5 cells/mL in Opti-MEM (Gibco, Cat #: 31985070) supplemented with 2% FBS, and were incubated at 37° C. in a 100% humid atmosphere containing 5% (v/v) CO2 overnight. On the next day, CAN97-83-GFP1 (A2a) hMPV was diluted in Opti-MEM medium containing 200 μg/mL CaCl2) and 2 μg/mL TPCK treated trypsin and distributed to the 96-well plates at 0.1 mL/well for an MOI=0.1. Test compounds were distributed to each well using a HP D300e digital dispenser with a final volume of 200 µL/well. After the plates were centrifuged at 700 g for one hour at room temperature, they were maintained in a humidified chamber at 37-C with 5% (v/v) CO2 for 96 hours. After the incubation, the medium was removed, and the plates were fixed with 0.1 mL/well 1% formaldehyde for 15 min at room temperature. The fixative was removed, the plates were air dried for 30-60 minutes, and then permeabilized with 0.1 mL/well 0.5% Triton X-100 in PBS for five minutes at room temperature. Following permeabilization, the plates were washed once with 0.1 mL/well blocking buffer consisting of 10% FBS (HyClone, Cat #: SH303396.03), 5% dry milk (AmericanBio, Cat #: AB10109-01000), and 0.1% Tween 20 (EMD Millipore, Cat #655204) in PBS. The plates were blocked with 0.1 mL/well blocking buffer for 60 minutes at 37° C. afterward. The blocking buffer was removed and 0.05 mL/well human metapneumovirus nucleocapsid antibody (Sigma, Cat #MAB80121) diluted 1:500 in Blocking buffer was added and incubated for two hours at 37-C. The plates were then washed with 0.2 mL/well 0.1% Tween 20/PBS five times, followed by addition of 0.05 mL/well of horseradish peroxidase (HRP) conjugated goat anti-mouse IgG antibody (Fisher Scientific, Cat #501077607) at 1:2000 dilution in the blocking buffer. After one-hour incubation at 37-C, plates were washed five times with 0.2 mL/well 0.1% tween 20 in PBS. The HRP signals were developed by adding 0.1 mL/well of TMB reagent (Thermo Scientific, Cat #: ENN301) and incubating at room until the positive control was apparent. At that point, the reaction was stopped by adding 0.1 mL/well TMB stop solution (SeraCare, Cat #: 5150-0021). The absorbance was measured at 450 nm with an EnVision plate reader. The relative absorbance was calculated by normalizing the absorbance of the compound-treated groups to that of the DMSO-treated groups (set as 100%). EC50 values were calculated using a nonlinear four parameter variable slope regression model.
For orientation: In an ELISA, binding on a coated surface is turned into a signal by an enzyme label.

We go through six molecules from patent publication US20250034182A1, “PHOSPHOLIPID COMPOUNDS AND METHODS OF MAKING AND USING THE SAME” (priority 2021, published 2025).

By EC50 is commonly meant the concentration giving half of the maximal effect.

Each structure is given as a SMILES string.

Consider `CCCCCCCCCCCCCCCCCCC[C@H](COP(=O)(O)OC[C@@]1(C#N)O[C@@H](c2ccc3c(N)ncnn23)[C@H](O)[C@@H]1O)OCc1ccc(-n2cncn2)c(C#N)c1` [Compound 30, ((2R,3S,4R)-5-(4-aminopyrrolo[2,1-f][1,2,4]triazin-7-yl)-2-cyano-3,4-dihydroxytetrahydrofuran-2-yl)methyl ((R)-2-((3-cyano-4-(1H-1,2,4-triazol-1-yl)benzyl)oxy)henicosyl) hydrogen phosphate], for which the values for the EC50 in assay [1] and in assay [2] were 1200 nM and 188 nM, respectively.
The matching figures for `CCCCCCCCCCCCCCCCCCCC[C@H](COP(=O)(O)OC[C@@]1(C#N)O[C@@H](c2ccc3c(N)ncnn23)[C@H](O)[C@@H]1O)OCc1cc(F)cc(C#N)c1` [Compound 34, ((2R,3S,4R)-5-(4-aminopyrrolo[2,1-f][1,2,4]triazin-7-yl)-2-cyano-3,4-dihydroxytetrahydrofuran-2-yl)methyl ((R)-2-((3-cyano-5-fluorobenzyl)oxy)docosyl) hydrogen phosphate]: 15000 nM and 646 nM.
For `CCCCCCCCCCCCCCCCC[C@H](COP(=O)(O)OC[C@@]1(C#N)O[C@@H](c2ccc3c(N)ncnn23)[C@H](O)[C@@H]1O)OCc1cc(F)cc(C#N)c1` [Compound 36, ((2R,3S,4R,5S)-5-(4-aminopyrrolo[2,1-f][1,2,4]triazin-7-yl)-2-cyano-3,4-dihydroxytetrahydrofuran-2-yl)methyl ((R)-2-((3-cyano-5-fluorobenzyl)oxy)nonadecyl) hydrogen phosphate], in that order: 10000 nM and 1100 nM.
For `CCCCCCCCCCCCCCCCCCC[C@H](COP(=O)(O)OC[C@@]1(C#N)O[C@@H](c2ccc3c(N)ncnn23)[C@H](O)[C@@H]1O)Oc1ccc(C#N)c(OC(C)C)c1` [Compound 38, ((2R,3S,4R,5S)-5-(4-aminopyrrolo[2,1-f][1,2,4]triazin-7-yl)-2-cyano-3,4-dihydroxytetrahydrofuran-2-yl)methyl ((R)-2-(4-cyano-3-isopropoxyphenoxy)henicosyl) hydrogen phosphate], in that order: 2900 nM and 137 nM.
Regarding `CCCCCCCCCCCCCCCCCCOCC(COc1cc(F)cc(C#N)c1)COP(=O)(O)OC[C@@]1(C#N)O[C@@H](c2ccc3c(N)ncnn23)[C@H](O)[C@@H]1O` (stereo partly drawn) [Compound 43, ((2R,3S,4R,5S)-5-(4-aminopyrrolo[2,1-f][1,2,4]triazin-7-yl)-2-cyano-3,4-dihydroxytetrahydrofuran-2-yl)methyl (3-(3-cyano-5-fluorophenoxy)-2-((octadecyloxy)methyl)propyl) hydrogen phosphate], the concentration for a half-maximal effect (EC50) came to 9700 nM in assay [1] and 901 nM in assay [2].
For `CCCCCCCCCCCCCCCCCCOC[C@@H](COP(=O)(O)OC[C@@]1(C#N)O[C@@H](c2ccc3c(N)ncnn23)[C@H](O)[C@@H]1O)Oc1ccc(C#N)nc1` [Compound 72, ((2R,3S,4R,5S)-5-(4-aminopyrrolo[2,1-f][1,2,4]triazin-7-yl)-2-cyano-3,4-dihydroxytetrahydrofuran-2-yl)methyl ((S)-2-((6-cyanopyridin-3-yl)oxy)-3-(octadecyloxy)propyl) hydrogen phosphate], in that order: 2400 nM and 70 nM.
